Source: patent EP4775208A1, “USE OF PRMT5 INHIBITOR IN TREATMENT OF TUMORS OR CANCERS” (Apeiron Therapeutics (Hong Kong) Ltd., priority 2023, dated 2025)
One block for each molecule: values may come before it.

Columns and labels:
[1] = Mouse pharmacokinetic experiment (IV and PO, plasma); type: in vivo, ICR male mice; conditions: ICR mice; for bioavailability: male, mouse, read-out: Bioavailability F (%); for bioavailability / AUClast: plasma
Protocol: II. Mouse Pharmacokinetic Experiment
The compounds used in this experiment are specific embodiments of the present invention, with reference to compound AMG473 as an example from Amgen's patent WO 2022/169948A1, identified as example 473.
ICR male mice, N=3/group; sourced from Zhejiang Vital River Laboratory Animal Technology Co., Ltd.
3. Drug Preparation and Administration
Single oral (PO) administration to ICR mice: Compounds were dissolved in dimethyl sulfoxide, added to polyethylene glycol 400 and sterile water, and then adjusted to a clear solution with a small amount of 1 mol/L hydrochloric acid. After overnight fasting, the mice were orally gavaged with a dose of 10 mg/kg. Single intravenous (IV) administration to ICR mice: Compounds were dissolved in dimethyl sulfoxide, added to polyethylene glycol 400 and sterile water, and then adjusted to a clear solution with a small amount of 1 mol/L hydrochloric acid. After overnight fasting, the mice received tail vein injections with a dose of 3 mg/kg.
Approximately 30 µL/time point blood samples were collected via the tail vein. Potassium ethylenediaminetetraacetate was used as an anticoagulant, and samples were centrifuged at 4000 g/min for 5 minutes at 4°C within 1 hour. Blood sampling time points were 0.0833 (IV), 0.25, 0.5, 1, 2, 4, 6, 8, 24 hours. Samples were stored in a -20°C freezer.
Plasma samples (30µL, 10µL sample + 20µL blank plasma) were mixed with 200µL ice-cold acetonitrile containing internal standards. After vortexing for 30 seconds, samples were centrifuged at 4000g/min for 20 minutes. One hundred microliters of the supernatant were transferred to a 96-well plate, followed by the addition of 200µL ultrapure water. After vortexing for 30 seconds, 5µL or 10µL were injected into LC-MS/MS for analysis. Table 7: Pharmacokinetic Data

[2] = test system: LN18 MTAP(-/-) cells; test: Inhibition of proliferation of LN18 MTAP(-/-) cells (CellTiter-Glo); type: cell-based; conditions: cell proliferation, 7 days
Protocol: Test 5: Assay for Inhibitory Activity of Compounds against LN18 MTAP(-/-) Cell Proliferation
Materials and Cells: The LN18 MTAP(-/-) cell line was provided by Cobioer Biosciences (China). Cell culture media, fetal bovine serum (FBS), and penicillin-streptomycin were purchased from Thermo Fisher Scientific (USA). 384-well plates were purchased from PerkinElmer (USA). The CellTiter-Glo assay kit was purchased from Promega (USA).
Cell Culture: LN18 MTAP(-/-) cells were cultured in a medium supplemented with 10% fetal bovine serum (FBS) and 1% penicillin-streptomycin at 37°C with 5% CO2. Only cells in the logarithmic growth phase were used for experiments.
Cell Proliferation Inhibition Assay: The antiproliferative activity of the compounds against LN18 MTAP(-/-) cells was assessed using the CellTiter-Glo assay kit. Cell suspensions were adjusted to the appropriate density and seeded into 384-well plates at a volume of 40 µL per well, then incubated overnight at 37°C with 5% CO2. Compounds (40 nL) were added to each well to achieve final concentrations ranging from 0 to 1,000 nM (starting concentration 1,000 nM, 3-fold serial dilutions, 9 dose points), with a final DMSO concentration of […]. The cell plates were incubated at 37°C with 5% CO2 for 7 days. Subsequently, 40 µL of CellTiter-Glo reagent was added to measure cell viability.

[3] = test system: HCT-116 MTAP wild-type cells; test: Inhibition of proliferation of HCT-116 MTAP wild-type cells (Cell-Titer Glo); type: cell-based; conditions: 8 days
Outline: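 MTAP wild-type HCT-116 cells were seeded, cultured overnight and then exposed to compound from 10,000 nM down in a 10-point, 3-fold series (0.1% DMSO). Plates were incubated 8 days at 37°C, 5% CO2. Proliferation was read by Cell-Titer Glo viability luminescence.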

[4] = test system: MDA-MB-231; test: Mini cell panel: inhibition of proliferation of MDA-MB-231 cells; type: cell-based
Source text: (§1) Test 9: Mini Cell Panel: Assay for Inhibitory Activity of Compounds against Proliferation of 20 Tumor Cell Lines
(§2) Materials and Cells: Fifteen MTAP(-/-) cell lines and five MTAP wild-type cell lines were purchased from ATCC (USA). Cell culture media, fetal bovine serum (FBS), and penicillin-streptomycin were purchased from Thermo Fisher Scientific (USA). 384-well plates were purchased from PerkinElmer (USA). The CellTiter-Glo assay kit was purchased from Promega (USA). Paclitaxel was used as the control compound.

[5] = test system: LU99; test: Mini cell panel: inhibition of proliferation of LU99 cells; type: cell-based
Source text: as §1, §2

[6] = test system: Ht 1080; test: Mini cell panel: inhibition of proliferation of Ht 1080 cells; type: cell-based
Source text: as §1
as §2, with “Paclitaxel was used as the control compound.” left out

[7] = test system: SW1573; test: Mini cell panel: inhibition of proliferation of SW1573 cells; type: cell-based
Source text: as §1, §2

[8] = test system: Calu-1; test: Mini cell panel: inhibition of proliferation of Calu-1 cells; type: cell-based
Source text: as §1, §2

[9] = test system: SU-DHL-10; test: Mini cell panel: inhibition of proliferation of SU-DHL-10 cells; type: cell-based
Source text: as §1, §2

[10] = test system: DOHH-2; test: Mini cell panel: inhibition of proliferation of DOHH-2 cells; type: cell-based
Source text: as §1, §2

[11] = test system: LN-18; test: Mini cell panel: inhibition of proliferation of LN-18 cells; type: cell-based
Source text: as §1, §2

[12] = test system: NCI-H647; test: Mini cell panel: inhibition of proliferation of NCI-H647 cells; type: cell-based
Source text: as §1, §2

[13] = test system: CFPAC-1; test: Mini cell panel: inhibition of proliferation of CFPAC-1 cells; type: cell-based
Source text: as §1, §2

[14] = test system: ACHN; test: Mini cell panel: inhibition of proliferation of ACHN cells; type: cell-based; conditions: MTAP (-/-)
Source text: as §1, §2

[15] = test system: BxPc-3; test: Mini cell panel: inhibition of proliferation of BxPc-3 cells; type: cell-based
Source text: as §1, §2

[16] = test system: PSN-1; test: Mini cell panel: inhibition of proliferation of PSN-1 cells; type: cell-based
Source text: as §1, §2

[17] = test system: SW780; test: Mini cell panel: inhibition of proliferation of SW780 cells; type: cell-based
Source text: as §1, §2

[18] = test system: SU-DHL-4; test: Mini cell panel: inhibition of proliferation of SU-DHL-4 cells; type: cell-based
Source text: as §1, §2

[19] = Homo sapiens, MDA-MB-231, MTAP (-/-)
[20] = Homo sapiens, Lu-99, MTAP (-/-)
[21] = Homo sapiens, HT-1080, MTAP (-/-)
[22] = Homo sapiens, SW1573, MTAP (-/-)
[23] = Homo sapiens, Calu-1, MTAP Wild type
[24] = Homo sapiens, SU-DHL10, MTAP Wild type
[25] = Homo sapiens, DOHH-2, MTAP (-/-)
[26] = Homo sapiens, LN-18, MTAP (-/-)
[27] = Homo sapiens, NCI-H647, MTAP (-/-)
[28] = Homo sapiens, CFPAC-1, MTAP Wild type
[29] = Homo sapiens, BXPC-3, MTAP (-/-)
[30] = Homo sapiens, SW780, MTAP (-/-)
[31] = Homo sapiens, SU-DHL-4, MTAP Wild type

Molecule: (S)-4-amino-7-fluoro-N-methyl-N-(6-(triflu oromethyl)-2,3-dihydr obenzofuran-3-yl)imi dazo[1,5-a]quinoxalin e-8-carboxamide [Example 29]
IC50 ([4]; MTAP (-/-)): 390 nM
IC50 ([5]; MTAP (-/-)): 37.4 nM
IC50 ([6]; MTAP (-/-)): 36.7 nM
IC50 ([7]; MTAP (-/-)): 47.3 nM
IC50 ([8]; MTAP Wild type): 2300 nM
IC50 ([9]; MTAP Wild type): 1590 nM
T1/2 ([1]; IV(3mg/kg)): 4.38 h
AUClast ([1]; IV(3mg/kg)): 12925 ng·h/mL
T1/2 ([1]; PO(10mg/kg)): 4.16 h
Bioavailability F (%) ([1]; PO(10mg/kg) vs IV(3mg/kg)): 102%
AUClast ([1]; PO(10mg/kg)): 43906 ng·h/mL
IC50 ([10]; MTAP (-/-)): 11.6 nM
IC50 ([11]; MTAP (-/-)): 5.4 nM
IC50 ([12]; MTAP (-/-)): 41.6 nM
IC50 ([13]; MTAP Wild type): 1060 nM
IC50 [14]: 2.9 nM
IC50 ([15]; MTAP (-/-)): 57.2 nM
IC50 ([16]; MTAP (-/-)): 24.1 nM
IC50 [2]: 5.42 nM
IC50 ([17]; MTAP (-/-)): 660 nM
IC50 ([18]; MTAP Wild type): > 10000 nM
IC50 [3]: 935 nM

Molecule: CN(C(=O)c1ccc2nc(N)c3cncn3c2c1)[C@@H]1COc2cc(C(F)(F)F)ccc21 [Example 107, (S)-4-amino-N-methy 1-N-(6-(trifluoromethy 1)-2,3-dihydrobenzofuran-3-yl)imidazo[1,5-a]quinoxaline-8-carboxamide]
IC50 [4, 19]: 2060 nM
IC50 [5, 20]: 39.6 nM
IC50 [6, 21]: 10.4 nM
IC50 [7, 22]: 44.4 nM
IC50 [8, 23]: > 10000 nM
IC50 [9, 24]: 1700 nM
bioavailability ([1]; PO(10mg/kg) vs IV(3mg/kg)): 119%
IC50 [10, 25]: 33.2 nM
IC50 [11, 26]: 9.4 nM
IC50 [12, 27]: 30 nM
IC50 [13, 28]: 781 nM
IC50 ([14]; Homo sapiens, ACHN): 2.7 nM
IC50 [15, 29]: 32.7 nM
IC50 ([16]; Homo sapiens, PSN1, MTAP (-/-)): 30.9 nM
IC50 ([2]; Homo sapiens, LN-18, 168 h): 11.1 nM
IC50 [17, 30]: 210 nM
IC50 [18, 31]: 3100 nM
IC50 ([3]; Homo sapiens, HCT-116, 192 h): 1730 nM

Molecule: [2H]C([2H])([2H])N(C(=O)c1cc2c(cc1F)nc(N)c1cncn12)[C@@H]1COc2cc(C(F)(F)F)ccc21 [Example 41, (S)-4-amino-7-fluoro-N-(methyl-d3)-N-(6-(trifluoromethyl)-2,3-di hydrobenzofuran-3-yl)imidazo[1,5-a]quinox aline-8-carboxamide]
bioavailability ([1]; PO(10mg/kg) vs IV(3mg/kg)): 257%
IC50 ([2]; Homo sapiens, LN-18, 168 h): 14.5 nM
IC50 ([3]; Homo sapiens, HCT-116, 192 h): 1140 nM

More lines, main results first:

bioavailability ([1]; PO(10mg/kg) vs IV(3mg/kg)): 131%
IC50 ([3]; Homo sapiens, HCT-116, 192 h): 1080 nM
Molecule: [2H]C([2H])([2H])N(C(=O)c1ccc2nc(N)c3cncn3c2c1)[C@@H]1COc2cc(C(F)(F)F)ccc21 [Example 16, (S)-4-amino-N-(methyl-d3)-N-(6-(trifluoromethyl)-2,3-dihydrobenzofuran-3-yl)imidaz o[1,5-a]quinoxaline-8-carboxamide]
IC50 ([2]; Homo sapiens, LN-18, 168 h): 6.57 nM

IC50 [4, 19]: 955 nM
IC50 [7, 22]: 662 nM
IC50 [8, 23]: 3370 nM
IC50 [9, 24]: 1300 nM
bioavailability ([1]; PO(10mg/kg) vs IV(3mg/kg)): 77%
IC50 [12, 27]: 16 nM
IC50 ([14]; Homo sapiens, ACHN): 4.7 nM
IC50 [15, 29]: 15.2 nM
IC50 [17, 30]: 177 nM
IC50 [18, 31]: 1260 nM
IC50 ([3]; Homo sapiens, HCT-116, 192 h): 1710 nM
Molecule: CN(C(=O)c1cc2c(cn1)nc(N)c1cncn12)[C@@H]1COc2cc(C(F)(F)F)ccc21 [Example 4, (S)-4-amino-N-methy 1-N-(6-(trifluoromethy 1)-2,3-dihydrobenzofuran-3-yl)imidazo[1,5-a]pyrido[3,4-e]pyrazine-8-carboxamide]
IC50 [5, 20]: 21.8 nM
IC50 [6, 21]: 2.4 nM
IC50 [10, 25]: 19.3 nM
IC50 [11, 26]: 7.8 nM
IC50 [13, 28]: 407 nM
IC50 ([16]; Homo sapiens, PSN1, MTAP (-/-)): 12.6 nM
IC50 ([2]; Homo sapiens, LN-18, 168 h): 7.85 nM
